From patent publication US20250340939A1 (priority 2021, published 2025)
“Also recorded” adds a separate entry of the source.

What was measured:
E. coli = test: Antimicrobial susceptibility testing (AST) with MST read-out of 16S rRNA; set-up: dose or concentration left out as unconfirmed; settings: 5*10^5 bacteria; 90-150 minutes
Description: Kanamycin resistant E. coli bacteria, DH5α or BL-21, were maintained as frozen stocks at −80° C. in homemade L.B (Bacto tryptone 10 g/L, NaCl 10 g/L Bacto yest extract 5 g/L in autoclavable DDW) supplemented with 50% Glycerol as cryoprotective agent. Cultures were started from frozen stocks and cultivated at 37° C. overnight, at the presence of 30 μg/ml Kanamycin. After starter growth, bacteria amount was measured using optical density for further experiments.
Bacteria was grown as described in “bacterial growth” section and adjusted to 0.1 O.D for a second growing step after overnight starter. When reached 0.6 O.D, bacterial concentration adjusted to 7.143*10^5 bacteria/ml and 0.7 ml (5*10^5 bacteria) were divided to slit-cap Eppendorf tubes containing Ampicillin antibiotic or water as control. The tubes were placed in a temperature control thermo-mixer for further growth at 37° C. At an indicated time-point, tubes were taken out combined with RNA protect reagent for RNA extraction as previously described.

16S rRNA (E. coli) = test: MST of Cy5 probes hybridized with total bacterial RNA; assay type: binding
Description: For bacterial RNA extraction, DH5α E. coli cells transfected with pcDNA3.1+ plasmid were grown overnight in LB medium containing 100 μg/ml ampicillin. The concentration of bacterial cells was determined according to OD at 600 nm, and ˜7·10^8 cells were taken for RNA extraction. 1 volume of bacterial culture was mixed with 2 volumes of RNAprotect® Bacteria Reagent (QIAGEN), vortexed for 5 seconds and incubated for 5 minutes at room temperature. The sample was then centrifuged for 10 minutes at 5,000×g at room temperature. After discarding supernatant, the pellet was resuspended in 100 μl TE buffer (10 mM Tris-HCl, 1 mM EDTA, pH 8) containing 1 mg/ml lysozyme. The samples were vortexed for 5 seconds, and then incubated at room temperature for 10 minutes with vortexing every 2 minutes. 1 ml TRIzol™ reagent was added to the sample. The sample was incubated at room temperature for 5 minutes, and then RNA extraction was performed as described hereinabove.
RNA was extracted from a sample, and after extraction, the RNA pellet was solubilized and hybridized with a specific fluorescently labeled DNA probe in a hybridization solution (as schematically depicted in FIG. 1). After hybridization, the hybridized sample was loaded into an MST capillary and inserted into a Monolith™ MST instrument (NanoTemper Technologies GmbH, Germany). This instrument included a blue mode (493 nm excitation, […]) and red mode ([…], 670 nm emission) for detection, and an I.R laser (1475 nm+/−15 nm) for heating. The intensities for both fluorescence detection (LED) and IR laser are adjustable, in a range of 0%-100%, wherein the temperature gradient generated has a temperature difference of up to about 2-8° C. Thermophoretic force was induced by infrared laser after 1 second, and maintained for 2 seconds, for a total of a 3 second measurement window (measurement time may optionally be further reduced to 2 seconds using current available MST instruments).
For RNA titration measurements, the extracted RNA solution was diluted to X2 and a serial dilution was prepared in water. Hybridization solutions were prepared as described herein, were X1 solution consisted of SSC buffer X1, 0.05% TWEEN™ 20 surfactant, and 1% formamide unless indicated otherwise. Fluorescently labeled probes were diluted from a 100 μM stock to 1:2400 in hybridization solution X2, denatured for 5 minutes at 100° C. and then incubated on ice for 5 minutes. If a mixture of uniformly labeled probes was prepared, the probes were diluted to a 1:1200 dilution in water and then diluted to 1:2400 with hybridization solution X4 (1:1/number of probes) to create equal molarity of the fluorescent dye. The probe solution was combined with the titration series in a 1:1 (v/v) ratio (10 μL total volume) and allowed to hybridize at a defined temperature for a given time as described. If post-hybridization with intercalating agents (ICA), doxorubicin or Midori™ Green, was performed, the samples were combined with ICA X5 solution 4:1 (v:v) ratio, 8 μL and 2 μL respectively. For cell based measurements, after extraction, the RNA pellet was solubilized and hybridized with a specific fluorescently labeled DNA probe in a hybridization solution (as schematically depicted in FIG. 1).
In order to determine the optimal hybridization temperature, one of the designed probes (16S1^Cy5) was incubated with increasing concentrations of bacterial RNA at different temperatures for 10 minutes. MST measurements were then performed using the red wavelength acquisition mode.
In order to assess the effect of human RNA presence and Dox post-hybridization on signal response, 16S1^Cy5 was incubated with increasing concentrations of bacterial or human total RNA at 71° C. for 2 hours. Equal amounts were then taken for post-hybridization incubation with Dox or hybridization buffer as a control. […]

S-gene RNA (SARS-CoV2) = assay type: binding
human total RNA = test: MST of 16S probe / Dox with human total RNA (specificity); assay type: binding; settings: 100 μM Dox with 16S1^Cy5; blue mode
Description: In order to assess the effect of human RNA presence and Dox post-hybridization on signal response, 16S1^Cy5 was incubated with increasing concentrations of bacterial or human total RNA at 71° C. for 2 hours. Equal amounts were then taken for post-hybridization incubation with Dox or hybridization buffer as a control.
In order to compare signal sensitivity in the presence and absence of Dox, ΔFnorm[‰] values of human RNA were subtracted (ΔΔFnorm), and the ratios of ΔΔFnorm[‰] were compared.

[1] = MST of Dox alone in hybridization solution; assay type: physicochemical; settings: 3.125-100 μM Dox; no RNA, no probes; blue mode
Description: In order to investigate the possibility that Dox monomers interact with each other, thereby causing Dox to migrate into the heating zone particularly at high Dox concentrations, Dox was incubated in hybridization solution without the presence of either S-gene RNA or the DNA probes.

| Structure (SMILES) | growth of E. coli bacteria in the presence of antibiotic (E. coli) | effect of Dox on signal sensitivity of 16S probes (16S rRNA (E. coli); 100 μM Dox post-hybridization) | Dox signal dependence on RNA concentration (16S rRNA (E. coli); 100 μM Dox with 16S1^Cy5, blue mode) | effect of Dox on slope of S^Cy5 linear regression (analytical sensitivity) (S-gene RNA (SARS-CoV2); 100 μM Dox vs 0, 1 or 10 μM Dox) | effect of S-gene RNA concentration on Dox signal without DNA probe (S-gene RNA (SARS-CoV2); 100 μM Dox, no S^Cy5 probe, blue mode) | Dox fluorescence dependence on S-gene RNA concentration (S-gene RNA (SARS-CoV2); 1, 10 or 100 μM Dox, S^Cy5 present, blue mode) | effect of Dox on initial fluorescence intensity of S^Cy5 (S-gene RNA (SARS-CoV2); 1, 10 or 100 μM Dox, dose-dependent, prior to temperature gradient) | Dox signal dependence on RNA concentration (human total RNA) | degree of Dox migration into the heating zone [1] |
| --- | --- | --- | --- | --- | --- | --- | --- | --- | --- |
| CC1(C)S[C@@H]2[C@H](NC(=O)[C@H](N)c3ccccc3)C(=O)N2[C@H]1C(=O)O [Ampicillin] | no growth was observed |  |  |  |  |  |  |  |  |
| COc1cccc2c1C(=O)c1c(O)c3c(c(O)c1C2=O)C[C@@](O)(C(=O)CO)C[C@@H]3O[C@H]1C[C@H](N)[C@H](O)[C@H](C)O1 [Dox, doxorubicin, reference compound] |  | increased signal sensitivity; also recorded: enhanced signal sensitivity to a considerable extent | dependent on the concentrations of both human RNA and bacterial RNA | steeper slope | did not noticeably affect the change in signal | dependent on S-gene RNA concentration | decreased the initial fluorescence intensity values | dependent on the concentrations of both human RNA and bacterial RNA | correlated to Dox concentration |
